Reference: patent publication US11806341B2, “Methods of diagnosing and treating anxiety disorder” (THE CHILDREN'S HOSPITAL OF PHILADELPHIA, priority 2015, dated 2023)
Entries after “also recorded” stand apart in the source; their conditions may differ.

Legend:
[1] = system: adolescent subjects previously diagnosed with ADHD who also had at least one genetic alteration in an mGluR network gene; assay: Open-label Phase 1b clinical trial of NFC-1 in adolescent ADHD subjects with a CNV in an mGluR network gene; format: in vivo, human
[2] = system: dementia-related cognitive impairment; conditions: Phase I-III trials, dementia-related indications; cited from earlier work
[3] = system: adolescent subjects previously diagnosed with ADHD who also had at least one genetic alteration in an mGluR network gene; conditions: recently completed precision-medicine-based clinical trial; cited from earlier work
[4] = system: group I and group II/III mGluRs; conditions: Hirouchi 2000; cited from earlier work

| Structure (SMILES) | OCD symptoms during therapy ([1]; eight of the 30 ADHD subjects with symptoms of OCD) | dermatillomania symptoms (ear scratching, bleeding ulcer) during therapy ([1]; one subject with OCD and a history of ear scratching) | score on Vanderbilt Scale items related to anxiety (nos. 41, 42, and 47) ([1]; week 5, two subjects, all 3 items, at enrollment maximum score of 3 on 2 of the 3 items) | total "never" score for all BRIEF anxiety/mood questions for all subjects ([1]; week 5 of dose escalation (50-400 mg bid), all 30 subjects, score at enrollment was 125) | total "often" score for all BRIEF anxiety/mood questions for all subjects ([1]; week 5 of dose escalation (50-400 mg bid), all 30 subjects, score at enrollment was 154) | safety and tolerability [2] | treatment of ADHD in subjects having a genetic alteration in an mGluR network gene [3] | activation of mGluRs in vitro [4] |
| --- | --- | --- | --- | --- | --- | --- | --- | --- |
| O=C1CC[C@H](C(=O)N2CCCCC2)N1 [NFC-1, fasoracetam monohydrate] | OCD symptoms improved | dermatillomania symptoms had reduced | 3 | 191 | 77 | generally safe and well tolerated | – | – |
| O=C1CC[C@H](C(=O)N2CCCCC2)N1 [fasoracetam] | – | – | – | – | – | – | successfully treated | nonselective activator against all classes of mGluRs; also recorded: can stimulate both group I and group II/III mGluRs |
